How the values were obtained:
Format in all cases: cell-based, human
[1] = system: cell surface LDLR activity; experiment: Dil-LDL uptake assay in HepG2 naïve cells; conditions: 33.3 μM; HepG2 naïve cells
Protocol: HepG2 naive cells and HEK293 naive cells were plated in 96-well plates (CellBind black plate with clear bottom (Corning; Cat #3340)) at a density of 25,000 cells/well, in complete media (DMEM high glucose (+sodium pyruvate for HepG2) (Wisent)+10% FBS). After 20 hours, cells were washed for 30 min with serum free DMEM media (100 μl/well), the wash media was removed and replaced with 100 μl/well of incubation media (DMEM high glucose (+sodium pyruvate for HepG2) (Wisent)+0.07% BSA (Sigma-Aldrich)) containing compound at various concentrations ([…]) or DMSO control (0.4% final). Each condition was prepared in triplicates. After 6 hours incubation at 37° C., Dil-LDL (Biomedical Technologies (Cat #BT-904)) was added to the cell media (5 μl) at 5 μg/ml final concentration, and cells returned to tissue culture incubator for another 18 hours (a total of 24 hours incubation with the compounds). After 2 washes (200 μl/well) with ice-cold D-PBS (Wisent) and aspiration of the final wash, plates were scanned (bottom read) on a SpectraMax GeminiEM™ plate reader (Molecular Devices). For each well, raw Dil-LDL uptake was measured as the average fluorescence intensity (RFU) (ex: 520 nm/em: 575 nm, cutoff: 550 nm) of 9 readings in 3 different points in the well. Dil-LDL uptake in each well was corrected for total number of cells by performing a CyQuant™ cell assay (Invitrogen; Cat #C7026). Namely, after recording the Dil fluorescence, the plate was frozen overnight at −80° C. The next day, the plates were thawed at room temperature, the cells lysed according to the manufacturer's protocol, and the number of cells/well was determined by measuring the fluorescence (RFU) of the CyQuant green fluorescent dye bound to the cellular nucleic acids (ex: 485 nm/em: 538 nm, cutoff: 515 nm). For each condition, Dil-RFU was divided by CyQuant-RFU. Corrected dil-LDL uptake is reported as % DMSO control and was obtained from triplicate wells.
The PCSK9 inhibitory compounds were also characterized using a Dil-LDL fluorescent uptake assay as described in Poirier et al., J. Biol. Chem. 284: 28856-28864, 2009. The method entails the fluorescence measurement of the Dil-LDL cellular incorporation via LDLR internalization (a measurement of cell surface LDLR activity) in human hepatocyte derived HuH7 or HepG2 cell lines, or human embryonic HEK293 cells, in the presence or absence of compounds.
HepG2 naïve cells and HEK293 naïve cells were plated in 96-well plates (CellBind™ black plate with clear bottom (Corning; Cat #3340)). At 20 h post-seeding, cells were incubated in the absence (DMSO or negative control) or in the presence of different concentrations of compounds. Each condition was prepared in triplicates. After 6 hours incubation, Dil-LDL (Biomedical Technologies (Cat #BT-904)) was added to the cell media, and cells returned to tissue culture incubator for another 18 hours. Plates were scanned (bottom read) on a SpectraMax GeminiEM™ plate reader (Molecular Devices). For each well, raw Dil-LDL uptake was measured as the average fluorescence intensity (RFU) (ex: 520 nm/em: 575 nm, cutoff: 550 nm) of 9 readings in 3 different points in the well. Dil-LDL uptake in each well was corrected for total number of cells by performing a CyQuant™ cell assay (Invitrogen, Cat #C7026) according to the manufacturer's instructions. Corrected Dil-LDL uptake is reported as a % of DMSO control and was obtained from triplicate wells.

[2] = system: HepG2 stable cells over-expressing WT PCSK9(+V5); experiment: MTT toxicity assay; conditions: 33.3 μM or less; 24 h
Protocol: HepG2 stable cells over-expressing hPCSK9(+V5) were seeded in complete DMEM (high glucose+sodium pyruvate) (Wisent)+10% FBS media in 96-well plates (Greiner BioOne) at a density of 1×10^5 cells/well (100 μl) and incubated for 20 hours. Cells were rinsed once with 100 ul/well of serum free DMEM media, followed by addition of 100 μl/well of DMEM (high glucose+sodium pyruvate) (Wisent)+0.07% BSA (Sigma-Aldrich) media containing compound at various concentrations (11, 33, 100 μM) or DMSO control (0.4% final) followed by overnight (24 hours) incubation. The MTT assay (Promega) consisted of addition of 20 μl/well MTT reagent and incubation for 45 minutes at 37° C., following the manufacturer's instructions. Absorbance was recorded at 490 nm and corrected for background due to nonspecific absorbance (690 nm).
For the MTT toxicity assay, HepG2 stable cells over-expressing WT PCSK9(+V5) were seeded in 96-well plates (Greiner BioOne) and incubated for 20 hours. Following a brief wash, cells were incubated overnight (24 hours) in the presence of increasing concentrations (11, 33, 100 μM) of compounds or in the presence of DMSO (control). The MTT assay (Promega) consisted of addition of 20 μl/well MTT reagent and incubation for 45 minutes at 37° C., following the manufacturer's instructions. Absorbance was recorded at 490 nm and corrected for background due to nonspecific absorbance (690 nm). Compounds with a low toxicity at 33.3 μM or less were selected as exemplified in FIG. 3 for compounds 19, 22a, 23, 4 and 17.

cell-surface LDLR = experiment: Immunofluorescence of cell-surface LDLR in HepG2 naïve cells; conditions: 33.3 μM, 20 h, non-permeabilized cells
Protocol: HepG2 naïve cells were plated on Poly-L-Lysine-coated (50 ug/ml) round microscope cover slips 1.12 mm thickness (Fisherbrand 12CIR #1) that were placed in a 24-well cell culture plate. Seeding was performed in DMEM complete media (10% FBS) and 24 hours later the media was swapped for media (+0.07% BSA) containing 33.3 μM of the different inhibitor compounds (300 μl/well). A volume of DMSO equivalent to the volume of inhibitor compound was also diluted in 0.07% BSA containing media and used as a negative control. After a 20 hour incubation period, the cells were washed 3× with PBS and then fixed for 10 min with 3.7% paraformaldehyde. Immunofluorescence of human LDLR (green labeling) was performed under non-permeabilizing conditions. After an additional 3 washes with PBS, cells were blocked for 30 min with 1% BSA, followed by overnight incubation at 4° C. with primary antibody (1:200 goat polyclonal anti-hLDLR in 1% BSA, R&D Systems). […] Immunofluorescence analyses were performed with a confocal miscroscope (Zeiss LSM-710).
The PCSK9 inhibitory compounds were characterized by immunofluorescence for cell-surface LDLR and for human transferrin receptor, as control, in HepG2 naïve cells. Cells were plated on Poly-L-Lysine-coated (50 ug/ml) round microscope cover slips 1.12 mm thickness (Fisherbrand 12CIR #1) that were placed in a 24-well cell culture plate. […]

Row | Compound | Dil-LDL uptake (FIG. 5A, in words) [1] | toxicity in MTT assay [2] | LDLR at the cell surface (immunofluorescence) (cell-surface LDLR)
1 | COC(=O)N[C@H](C(=O)N[C@@H](Cc1ccccc1)C(=O)N[C@@H](C)C(=O)NCB(O)O)C(C)C [Example 1] | no measurable activity |  | 
2 | CC(C)[C@H](NC(=O)Cc1ccc(OC(F)(F)F)cc1)C(=O)N[C@@H](Cc1ccccc1)C(=O)N[C@@H](C)C(=O)NC(CCC(N)=O)C(O)C(F)(F)F (stereo partly drawn) [Example 23, 6,6,6-Trifluoro-5-hydroxy-4-((S)-2-((S)-2-((S)-3-methyl-2-(2-(4-(trifluoromethoxy)phenyl)acetamido)butanamido)-3-phenylpropanamido)propanamido)hexanamide] | increase in the Dil-LDL uptake | low toxicity | 
3 | CCCCCCCCCC(=O)N[C@H](C(=O)N[C@@H](Cc1ccccc1)C(=O)N[C@@H](C)C(=O)NCB(O)O)C(C)C [Example 4, {[(2S)-2-[(2S)-2-[(2S)-2-Decanamido-3-methylbutanamido]-3-phenylpropanamido]propanamido]methyl}boronicacid] |  | low toxicity | 
4 | CCCCCCCCCC(=O)N[C@H](C(=O)N[C@@H](Cc1ccccc1)C(=O)NC(C)C(=O)NC(CCC(N)=O)C(C)O)C(C)C (single isomer, unassigned) [Example 22a] | increase in the Dil-LDL uptake | low toxicity | 
5 | CC(C)[C@H](NC(=O)c1ccc(-c2ccccc2)cc1)C(=O)N[C@@H](Cc1ccccc1)C(=O)N[C@@H](C)C(=O)NCB(O)O [Example 2, {[(2S)-2-[(2S)-2-[(2S)-3-Methyl-2-[(4-phenylphenyl)formamido]butanamido]-3-phenylpropanamido]propanamido]methyl}boronic acid] | no measurable activity |  | 
6 | COC(=O)CCC(NC(=O)[C@H](C)NC(=O)[C@H](Cc1ccccc1)NC(=O)[C@@H](NC(=O)OC)C(C)C)B(O)O (mixture of isomers) [Example 17, [(1R/S)-4-Methoxy-1-[(2S)-2-[(2S)-2-[(2S)-2-[(methoxycarbonyl)amino]-3-methylbutanamido]-3-phenylpropanamido]propanamido]-4-oxobutyl]boronic acid] | no measurable activity | low toxicity | 
7 | CCCCCCCCCC(=O)N[C@H](C(=O)N[C@@H](Cc1ccccc1)C(=O)N[C@@H](C)C(=O)NC(CCC(N)=O)C(O)C(F)(F)F)C(C)C (stereo partly drawn) [Example 19, N-((2S)-1-(((2S)-1-(((2S)-1-((6-Amino-1,1,1-trifluoro-2-hydroxy-6-oxohexan-3-yl)amino)-1-oxopropan-2-yl)amino)-1-oxo-3-phenylpropan-2-yl)amino)-3-methyl-1-oxobutan-2-yl)decanamide] | increase in the Dil-LDL uptake | low toxicity | increase of LDLR at the cell surface
8 | CCCCCCCCCC(=O)N[C@H](C(=O)N[C@@H](Cc1ccccc1)C(=O)N[C@@H](C)C(=O)NC(CCC(N)=O)C(O)CF)C(C)C (stereo partly drawn) [Example 21a, N-((2S)-1-(((2S)-1-(((2S)-1-((6-Amino-1-fluoro-2-hydroxy-6-oxohexan-3-yl)amino)-1-oxopropan-2-yl)amino)-1-oxo-3-phenylpropan-2-yl)amino)-3-methyl-1-oxobutan-2-yl)decanamide] | increase in the Dil-LDL uptake |  | 
